Test results reported in patent US20190194279A1, “Wound Healing Peptide” (James Cook University, priority 2016, published 2019).
“Also recorded” adds a separate entry of the source. Where no end group is shown, it is not given here.

Key:
[1] = test system: H69 cells; assay: Cell proliferation monitoring in real time using xCELLigence (Example 2, 200 nM, 48 h); assay type: cell-based, human; settings: 200 nM peptide
Procedure: H69 cell line, non-malignant cholangiocyte cell line was obtained from Dr. Gregory J. Gores, Mayo Clinic, Rochester, Minn.^34. H69 cells were grown and maintained as previously described^34 in DMEM/F12 (Life Technologies) containing 1× antibiotic/antimycotic and 15 mM HEPES, supplemented with 10% fetal bovine serum (FBS) (Gibco, Scotland) at 37 C and 5% incubator. Cell proliferation assays were performed with modified DMEM/F12 media supplemented with 0.5% FBS and particular hormone and growth factors in a certain concentration range as listed in the previous study^34.
Proliferation study in real time was performed using xCELLigence SP system (ACEA Biosciences) as described previously^34. H69 cells were plated into a 96-well xCELLigence E-plate (ACEA Biosciences) at a density of 2000 cells/well; then placed in the xCELLigence system positioned in a 5% CO2 incubator at 37° C. and monitored overnight^47. Then, the complete media was replaced with 180 μl of starvation media (modified DMEM/F12 media supplemented with […] as described previously^34) and incubated for at least 6 hour. Treatments were added to each well in a total volume of 20 μl to provide 200 nM final concentrations. […] Cell proliferation rate was calculated as the relative numbers of treated cells compared to control cells over time (48 hours in culture). […] Each treatment was measured in quadruplicate.

[2] = test system: skin-deep wound on the crown of the head; assay type: in vivo, BALB/c mice; settings: mouse; for day 4 wound healing relative to controls, result in words (Example 3): 56 pmoles topical daily days 0-4, relative to peptide control
Procedure: These studies were conducted with the approval of the James Cook University Small Animal Ethics Committee, applications A1806 and A2204, as described^6. Briefly, 4-5 female BALB/c mice per group were anesthetized (intraperitoneal xylazine 16 mg/kg; ketamine 80 mg/kg), after which a skin-deep wound on the crown of the head was inflicted using a 5 mm biopsy punch (Zivic instruments). […] Wounds were photographed daily and after blinding treatment groups the area of the lesion was measured with ImageJ software and plotted as percent of wound closure from original wound images. […] Each mouse wounding study was conducted at least twice to provide reproducibility.
Day 4 wound healing were assessed using peptides as described herein (Ov-GRN-1, Ov-GRN1-35, Ov-GRN8-38, Ov-GRN12-34, Ov-GRN12-35_3s, GRN24-3ala, GRN24-P2A, GRN24-P4A, and GRN27sps).

[3] = test system: H69 human cholangiocytes; assay: Cell proliferation monitoring in real time using xCELLigence (Example 1, day 4); assay type: cell-based; settings: for increase in cell proliferation over peptide controls: at 400 nM; for cell proliferation, result in words: concentrations tested 10 nM-2 μM
Description: Mammalian Cell Culture The non-malignant cholangiocyte cell line H69 is a SV40-transformed human bile duct epithelial cell line derived from human liver, kindly provided by Dr. Gregory J. Gores, Mayo Clinic, Rochester, Minn. H69 cells^23, 29, 30 were maintained in T75 cm^2 vented flasks (Corning) as monolayers as described^31 with minor modifications. Cells were maintained with regular splitting using 0.25% trypsin (Life Technologies) every 2-5 days in complete media [RPMI (Sigma) with growth factor-supplemented specialist complete media^30 [DMEM/F12 with high glucose, 10% FCS, 1×antibiotic/antimycotic, 25 μg/ml adenine, 5 μg/ml insulin, 1 μg/ml epinephrine, 8.3 μg/ml holo-transferrin, 0.62 μg/ml, hydrocortisone, 13.6 ng/ml T3 and 10 ng/ml EGF—Life Technologies]. Low nutrient media for cell proliferation assays was 5% complete media, i.e. 0.5% FCS and 1/20th of the growth factor concentrations listed above for complete media. The identities (human-derived) of the cell line were confirmed with […] (STR) analysis in January 2015 (15/15 positive loci across 2 alleles) and mycoplasma free at the DNA Diagnostics Centre (DDC)-medical (U.S.A.), accredited/certified by CAP, ISO/IEC 17025:2005 through ACLASS.
Cell proliferation monitoring in real time using xCELLigence Cells were seeded at 1,500 cells/well in 180 μl complete media (above) in E-plates (ACEA Biosciences) and grown overnight while monitored with an xCELLigence SP system (ACEA Biosciences) which monitors cellular events in real time by measuring electrical impedance across interdigitated gold micro-electrodes integrated into the base of tissue culture plates^32. Cells were washed three times with PBS prior to addition of 180 μl of low nutrient media (above) and incubated for a minimum of 6 h before further treatment. Treatments were prepared at 10× concentration and added to each well in a total volume of 20 μl. The xCELLigence system recorded cell indexes at intervals of one hour for 5-6 days following treatment. Readings for the cell index were normalized prior to treatment and cell proliferation ratios were determined from biological quadruplicates and represent the relative numbers of cells compared to control cells at day 4. Comparisons of induction of cell proliferation in response to treatments were accomplished using two-way ANOVA test with Dunnett's multiple comparison correction, using GraphPad Prism 6.02.

CADPVYTCRPGQTCCRGLHGYGCC [GRN24P2A]
proliferation rate relative to the control peptide [1]: 131.7%

Ov-GRN8-38: truncated Ov-GRN-1 peptide, residues 8-38, two disulfide bonds (RSPSCPDPVYTCRPGQTCARGLHGYGCAPMD; disulfide (positions not given here))
day 4 wound healing relative to controls, result in words (Example 3) [2]: significant increases in wound healing

CPDPVYTCRAGQTCCRGLHGYGCC [P10A]
proliferation rate relative to the control peptide [1]: 131.4%

CPDPVYTCRPGQTCCRGLHGYGCC [Ov-GRN12-35_3s]
increase in cell proliferation over peptide controls [3]: 26% | cell proliferation, result in words [3]: most potent peptide in the cell proliferation assay | increase in cell growth compared to control peptide ([3]; final concentration of 2 (unit not given), day 4): 41% | final concentrations with significantly increased cell proliferation (p<0.05) ([3]; four days after single application): > 15 nM | wound healing activity in vivo compared with the other Ov-GRN-1 peptides, in words [2]: no more active in vivo than the other Ov-GRN-1 peptides | day 4 wound healing relative to controls, result in words (Example 3) [2]: significant increases in wound healing

Ov-GRN12-34: minimal Ov-GRN-1 sequence that contains the four cysteine residues, two disulfide bonds (CPDPVYTCRPGQTCARGLHGYGC; disulfide (positions not given here))
day 4 wound healing relative to controls, result in words (Example 3) [2]: significant increases in wound healing

CPDAVYTCRPGQTCCRGLHGYGCC [P4A]
proliferation rate relative to the control peptide [1]: 141.6%

carp granulin1-30: N-terminal 30 residues of carp granulin-1 with Cys IV and Cys VI replaced with alanine residues (VIHCDAATICPDGTTCALSPYGVWYCAPFS) [reference compound]
maximum proliferation over peptide controls ([3]; at 32 nM): 9% | cell proliferation, result in words [3]: minimal cell proliferation (non-significant); also recorded: no substantial proliferation

CADAVYTCRAGQTCCRGLHGYGCC [GRN3Ala]
effect on cell proliferation compared to the control peptide, result in words [1]: did not have statistically significant effect | effect on cell proliferation compared to the control peptide, result in words ([1]; listed as SEQ ID NO:9): did not enhance cell proliferation

Ov-GRN1-35: truncated Ov-GRN-1 peptide, residues 1-35, four cysteines, two disulfide bonds, Cys IV and Cys VI replaced with alanine (MDTLQPIRSPSCPDPVYTCRPGQTCARGLHGYGCA; disulfide (positions not given here))
increase in cell proliferation over peptide controls [3]: 9% | day 4 wound healing relative to controls, result in words (Example 3) [2]: significant increases in wound healing
